Measurements: article PMC9669179 (Epilepsia, 2022)
Where two headings read alike, the source gives them in different places.

Experiments:
[1] = Brain pharmacokinetics in mice; settings: mouse
[2] = Brain pharmacokinetics in rats; settings: rats, after CBZ i.p.
[3] = Plasma pharmacokinetics in mice
[4] = Plasma pharmacokinetics in rats; settings: rats
adult male CF-1 mice [5] = test: 6 Hz 44 mA seizure test in mice; format: in vivo, mouse
[6] = test system: male adult Sprague-Dawley rats; test: 6 Hz 80 V seizure test in rats; format: in vivo, rat; settings: for Seizure protection (in words): rats, any time-point
[7] = CF-1, mouse, in vivo
[8] = CF-1, mouse, in vivo; remark: listed apart in the source
[9] = Sprague Dawley, rat, in vivo
[10] = Sprague Dawley, rat, in vivo; remark: listed apart in the source
in vivo [11] = settings: CF-1, mouse, ip; for half-life: Plasma t1/2
in vivo [12] = settings: Sprague Dawley, rat, ip
in vivo [13] = settings: Sprague Dawley, rat, ip, Brain t1/2
mice = settings: mouse, cited from earlier work
rats = settings: rat, minimum motor impairment test, i.p.; cited from earlier work
[14] = test system: adult Sprague-Dawley rats; test: Maximal electroshock; format: in vivo, rat; settings: MES; for Efficacy in rats (number seizure protected /number tested): low dose i.p. (CLB 17, CBZ 3, VPA 165 mg/kg); for Seizure protection (in words): rats
adult male CF-1 mice [15] = settings: mouse, 6 Hz 44 mA, i.p.; cited from earlier work
[16] = test system: adult Sprague-Dawley rats; settings: rat, MES, i.p.; cited from earlier work
in vivo [17] = settings: CF-1, mouse, ip
[18] = metabolite after high parent dose i.p.: CLB 17, CBZ 40 mg/kg
[19] = metabolite after low parent dose i.p.: CLB 7, CBZ 7 mg/kg
[20] = mouse, metabolite after high parent dose i.p.: CLB 17, CBZ 40 mg/kg
[21] = mouse, metabolite after low parent dose i.p.: CLB 7, CBZ 7 mg/kg
[22] = high dose i.p. (CLB 17, VPA 570, LEV 500 mg/kg), time test 0.25 h
[23] = high dose i.p. (CLB 17, VPA 570, LEV 500 mg/kg), time test 0.5 h
[24] = high dose i.p. (CLB 17, VPA 570, LEV 500 mg/kg), time test 1 h
[25] = high dose i.p. (CLB 17, VPA 570, LEV 500 mg/kg), time test 2 h
[26] = high dose i.p. (CLB 17, VPA 570, LEV 500 mg/kg), time test 4 h
[27] = high dose i.p. (CLB 17, VPA 570, LEV 500 mg/kg), time test 8 h
[28] = low dose i.p. (CLB 7, VPA 260, LEV 20 mg/kg), time test 0.25 h
[29] = low dose i.p. (CLB 7, VPA 260, LEV 20 mg/kg), time test 0.5 h
[30] = low dose i.p. (CLB 7, VPA 260, LEV 20 mg/kg), time test 1 h
[31] = low dose i.p. (CLB 7, VPA 260, LEV 20 mg/kg), time test 2 h
[32] = low dose i.p. (CLB 7, VPA 260, LEV 20 mg/kg), time test 4 h
[33] = low dose i.p. (CLB 7, VPA 260, LEV 20 mg/kg), time test 8 h
[34] = mice, low dose i.p. (VPA 260, LEV 20 mg/kg)

NC(=O)N1c2ccccc2C2OC2c2ccccc21 (stereo not shown) [CBZE, carbamazepine-10,11-epoxide]
Brain/Plasma AUC ratio of active metabolite [1, 18]: 1.00
Brain/Plasma AUC ratio of active metabolite [1, 19]: 1.20
Brain half-life of metabolite [2]: approximately 4 hrs
Plasma half-life of CBZE relative to CBZ ([3]; mice, high dose CBZ 40 mg/kg i.p., fold longer than CBZ): ~ 3 fold
Plasma t1/2 of metabolite [3, 20]: 239 min
Plasma t1/2 of metabolite [3, 21]: 72 min
CBZE plasma exposures as % of CBZ ([4]; after CBZ i.p.): approximately 70%
Plasma half-life of metabolite ([4]; after CBZ i.p.): approximately 4 hrs

CC[C@@H](C(N)=O)N1CCCC1=O [LEV, levetiracetam]
Efficacy in mice (number seizure protected/number tested) (adult male CF-1 mice [5]; [22]): 1/4
Efficacy in mice (number seizure protected/number tested) (adult male CF-1 mice [5]; [23]): 1/4
Efficacy in mice (number seizure protected/number tested) (adult male CF-1 mice [5]; [24]): 1/4
Efficacy in mice (number seizure protected/number tested) (adult male CF-1 mice [5]; [25]): 1/4
Efficacy in mice (number seizure protected/number tested) (adult male CF-1 mice [5]; [26]): 1/4
Efficacy in mice (number seizure protected/number tested) (adult male CF-1 mice [5]; [27]): 0/4
Efficacy in mice (number seizure protected/number tested) (adult male CF-1 mice [5]; [28]): 0/4
Efficacy in mice (number seizure protected/number tested) (adult male CF-1 mice [5]; [29]): 0/4
Efficacy in mice (number seizure protected/number tested) (adult male CF-1 mice [5]; [30]): 0/4
Efficacy in mice (number seizure protected/number tested) (adult male CF-1 mice [5]; [31]): 0/4
Efficacy in mice (number seizure protected/number tested) (adult male CF-1 mice [5]; [32]): 0/4
Efficacy in mice (number seizure protected/number tested) (adult male CF-1 mice [5]; [33]): 0/4
Protection against seizures (adult male CF-1 mice [5]; mice, high-dose LEV (500 mg/kg i.p.), within 4 hrs post-dose): 25%
Seizure protection (in words) (adult male CF-1 mice [5]; [34]): did not protect
Efficacy in rats (number seizure protected /number tested) ([6]; high dose i.p. (LEV 800 mg/kg), time test 0.25 h): 0/4
Efficacy in rats (number seizure protected /number tested) ([6]; high dose i.p. (LEV 800 mg/kg), time test 0.5 h): 0/4
Efficacy in rats (number seizure protected /number tested) ([6]; high dose i.p. (LEV 800 mg/kg), time test 1 h): 0/4
Efficacy in rats (number seizure protected /number tested) ([6]; high dose i.p. (LEV 800 mg/kg), time test 2 h): 0/4
Efficacy in rats (number seizure protected /number tested) ([6]; high dose i.p. (LEV 800 mg/kg), time test 4 h): 0/4
Efficacy in rats (number seizure protected /number tested) ([6]; high dose i.p. (LEV 800 mg/kg), time test 8 h): 0/4
Efficacy in rats (number seizure protected /number tested) ([6]; low dose i.p. (LEV 14 mg/kg), time test 0.25 h): 0/4
Efficacy in rats (number seizure protected /number tested) ([6]; low dose i.p. (LEV 14 mg/kg), time test 0.5 h): 0/4
Efficacy in rats (number seizure protected /number tested) ([6]; low dose i.p. (LEV 14 mg/kg), time test 1 h): 0/4
Efficacy in rats (number seizure protected /number tested) ([6]; low dose i.p. (LEV 14 mg/kg), time test 2 h): 0/4
Efficacy in rats (number seizure protected /number tested) ([6]; low dose i.p. (LEV 14 mg/kg), time test 4 h): 0/4
Efficacy in rats (number seizure protected /number tested) ([6]; low dose i.p. (LEV 14 mg/kg), time test 8 h): 0/4
Seizure protection (in words) ([6]; high dose LEV 800 mg/kg i.p.): failed to protect
Seizure protection (in words) ([6]; low dose LEV 14 mg/kg i.p.): failed to protect
Plasma Dose Prop (AUC) [7]: 1.27
Plasma Dose Prop (Cmax) [7]: 1.00
Plasma t1/2 ([7]; ip): 123 min
Brain Dose Prop (AUC) [8]: 1.03
Plasma Dose Prop (AUC) [9]: 0.55
Plasma Dose Prop (Cmax) [9]: 0.500
Plasma t1/2 ([9]; ip): 191 min
Brain Dose Prop (AUC) [10]: 0.56
Brain t1/2 ([10]; ip): 212 min
Tmax (in vivo [11]): 15 min
half-life (in vivo [11]): 103 min
half-life (in vivo [12]; Plasma t1/2): 370 min
half-life (in vivo [13]): 265 min
TD50 - high dose (mice; rotarod test, i.p.): 500 mg/kg
TD50 - high dose (rats): 800 mg/kg

O=C1CC(=O)N(c2ccccc2)c2cc(Cl)ccc2N1 [NCLB, N-desmethyl clobazam]
Brain/Plasma AUC ratio of active metabolite [1, 18]: 1.64
Brain/Plasma AUC ratio of active metabolite [1, 19]: 1.88
NCLB concentrations relative to CLB ([3]; mice, after CLB i.p., fold greater than CLB): approximately 10 fold
Plasma AUC of NCLB relative to CLB ([3]; mouse, after CLB i.p., fold greater than CLB): approximately 10 fold
Plasma t1/2 of metabolite [3, 20]: 266 min
Plasma t1/2 of metabolite [3, 21]: 385 min
NCLB concentrations relative to CLB ([4]; plasma and brain, after CLB i.p., fold less than CLB): ~ 20 fold

CCCC(CCC)C(=O)O [VPA, sodium valproate]
Efficacy in mice (number seizure protected/number tested) (adult male CF-1 mice [5]; [22]): 4/4
Efficacy in mice (number seizure protected/number tested) (adult male CF-1 mice [5]; [23]): 4/4
Efficacy in mice (number seizure protected/number tested) (adult male CF-1 mice [5]; [24]): 4/4
Efficacy in mice (number seizure protected/number tested) (adult male CF-1 mice [5]; [25]): 4/4
Efficacy in mice (number seizure protected/number tested) (adult male CF-1 mice [5]; [26]): 0/4
Efficacy in mice (number seizure protected/number tested) (adult male CF-1 mice [5]; [27]): 0/4
Efficacy in mice (number seizure protected/number tested) (adult male CF-1 mice [5]; [28]): 4/4
Efficacy in mice (number seizure protected/number tested) (adult male CF-1 mice [5]; [29]): 3/4
Efficacy in mice (number seizure protected/number tested) (adult male CF-1 mice [5]; [30]): 0/4
Efficacy in mice (number seizure protected/number tested) (adult male CF-1 mice [5]; [31]): 0/4
Efficacy in mice (number seizure protected/number tested) (adult male CF-1 mice [5]; [32]): 0/4
Efficacy in mice (number seizure protected/number tested) (adult male CF-1 mice [5]; [33]): 0/4
Brain concentration needed for complete seizure protection (adult male CF-1 mice [5]; mice, comparison of the two VPA dose levels): above 100 ng/mg
Seizure protection (in words) (adult male CF-1 mice [5]; mice, high dose i.p. (VPA 570 mg/kg), sustained only within 2 hrs): maximal antiseizure efficacy
Seizure protection (in words) (adult male CF-1 mice [5]; [34]): seizure protection was observed within the first hour
Efficacy in rats (number seizure protected /number tested) ([14]; time test 0.25 h): 3/4
Efficacy in rats (number seizure protected /number tested) ([14]; time test 0.5 h): 3/4
Efficacy in rats (number seizure protected /number tested) ([14]; time test 1 h): 1/4
Efficacy in rats (number seizure protected /number tested) ([14]; time test 2 h): 0/4
Efficacy in rats (number seizure protected /number tested) ([14]; time test 4 h): 0/4
Efficacy in rats (number seizure protected /number tested) ([14]; time test 8 h): 0/4
Seizure protection (in words) ([14]; high dose i.p. (CLB 37, VPA 315 mg/kg)): full to moderate seizure protection
Seizure protection (in words) ([14]; low dose i.p. (CLB 17, VPA 165 mg/kg)): moderate protection
Plasma Dose Prop (Cmax) [7]: 0.863
Brain Dose Prop (AUC) [8]: 2.17
Brain t1/2 ([8]; ip): 76.8 min
Plasma Dose Prop (Cmax) [9]: 0.902
Time to total drug elimination (>97% drug eliminated) ([9]; ip): less than 4.5 hrs
Brain Dose Prop (AUC) [10]: 1.84
ED50 - low dose (adult male CF-1 mice [15]): 260 mg/kg
ED50 - low dose [16]: 165 mg/kg
Tmax (in vivo [11]): 30 min
Tmax (in vivo [11]; Plasma Tmax): 15 min
half-life (in vivo [11]): 43.8 min
Tmax (in vivo [17]): 30 min
Tmax (in vivo [17]; Brain Tmax): 15 min
half-life (in vivo [17]; Brain t1/2): 55.6 min
Tmax (in vivo [12]; Plasma Tmax): 15 min
TD50 - high dose (mice; in vivo, ip): 570 mg/kg
